This passage reports excess molar enthalpy results from the NIST ThermoML archive (doi:10.1016/j.tca.2012.01.024).

The nature of the series: excess molar enthalpy (molar enthalpy of mixing); xn = mol fraction of the nth substance listed. As to conditions: 1273.2 K, 101 kPa, Liquid, Calvet calorimetry.

Numbers after ± are expanded uncertainties.

With `[Ni]` [nickel] + [Sn], the excess molar enthalpy (x1 = 0.213) is -9.59 ± 0.097 kJ/mol.
For the molecule `[Ni]` [nickel] + [Sb], under “x1 = 0.2109”, the excess molar enthalpy is -10.8 ± 0.11 kJ/mol.
On to `[Sb]` [antimony] + [Sn], for which the excess molar enthalpy (x1 = 0.2665) was -1.08 ± 0.012 kJ/mol, the excess molar enthalpy (x1 = 0.4886) was -1.32 ± 0.014 kJ/mol and the excess molar enthalpy (x1 = 0.7372) was -0.974 ± 0.011 kJ/mol.
